Test results taken from patent publication US20230082430A1 (C4 Therapeutics, Inc., priority 2019, published 2023).

What follows are molecules tested on NCIH929.1 cells (assay: Cell viability assay for Table 2 (CellTiter-Glo 2.0, ATP quantification, 96 hr)). Settings: 96 h, NCIH929.1 cell viability, 96 hr, top concentration 1 μM, 14 points half log titration; read-out: IC50.
Type: cell-based
From the text: Cell Viability Assay for Table 2
CellTiter-Glo® 2.0 Assay was purchased from Promega (Madison, Wis., USA). NCIH929.1 cell line was purchased from ATCC (Manassas, Va., USA). Cell culture flasks and 384-well microplates were acquired from VWR (Radnor, Pa., USA).

SMILES	IC50
CC(C)(C)OC(=O)N1CCC(n2cc(Cc3ccc4c5c(cccc35)C(=O)N4C3CCC(=O)NC3=O)cn2)CC1 (racemic) [Compound 140, tert-butyl 4-(4-((1-(2,6-dioxopiperidin-3-yl)-2-oxo-1,2-dihydrobenzo[cd]indol-6-yl)methyl)-1H-pyrazol-1-yl)piperidine-1-carboxylate]	< 1 nM
N#Cc1ccc(N2CCN(Cc3ccc(Cc4ccc5c6c(cccc46)C(=O)N5C4CCC(=O)NC4=O)cc3)CC2)c(F)c1 (racemic) [Compound 183, 4-[4-[[4-[[1-(2,6-dioxo-3-piperidyl)-2-oxo-benzo[cd]indol-6-yl]methyl]phenyl]methyl]piperazin-1-yl]-3-fluoro-benzonitrile]	< 1 nM
O=C1CCC(N2C(=O)c3cccc4c(Cc5ccc(CN6CCOCC6)cc5)cnc2c34)C(=O)N1 (racemic) [Compound 221, 3-[20-[[4-(morpholinomethyl)phenyl]methyl]-25-oxo-27,30-diazatricyclododeca-(2),1(18),7(20),19(21),22(27)-pentaen-30-yl]piperidine-2,6-dione]	< 1 nM
O=C1CCC(N2C(=O)c3cccc4c(Cc5ccc(CN6CCC7(CCCO7)CC6)nc5)ccc2c34)C(=O)N1 (racemic) [Compound 268, 3-[6-[[6-(1-oxa-8-azaspiro[4.5]decan-8-ylmethyl)-3-pyridyl]methyl]-2-oxo-benzo[cd]indol-1-yl]piperidine-2,6-dione]	< 1 nM
CC1(C(=O)N2CCC(n3cc(Cc4ccc5c6c(cccc46)C(=O)N5C4CCC(=O)NC4=O)cn3)CC2)CCC1 (single isomer, unassigned) [Compound 67, 3-[6-[[1-[1-(1-methylcyclobutanecarbonyl)-4-piperidyl]pyrazol-4-yl]methyl]-2-oxo-benzo[cd]indol-1-yl]piperidine-2,6-dione]	< 1 nM
N#Cc1ccc(N2CCN(Cc3cnn(Cc4ccc5c6c(cccc46)C(=O)N5C4CCC(=O)NC4=O)c3)CC2)c(F)c1 (single isomer, unassigned) [Compound 129, 4-[4-[[1-[[1-[2,6-dioxo-3-piperidyl]-2-oxo-benzo[cd]indol-6-yl]methyl]pyrazol-4-yl]methyl]piperazin-1-yl]-3-fluoro-benzonitrile]	< 1 nM
CC(C)(C)OC(=O)N1CCC(n2cc(Cc3ccc4c5c(cccc35)C(=O)N4C3CCC(=O)NC3=O)cn2)CC1 (single isomer, unassigned) [Compound 141, tert-butyl 4-[4-[[1-[2,6-dioxo-3-piperidyl]-2-oxo-benzo[cd]indol-6-yl]methyl]pyrazol-1-yl]piperidine-1-carboxylate]	< 1 nM
CC(c1cnn(C2CCN(C(=O)C3(C)CCC3)CC2)c1)c1ccc2c3c(cccc13)C(=O)N2C1CCC(=O)NC1=O (single isomer, unassigned) [Compound 148, 3-(6-(1-(1-(1-(1-methylcyclobutane-1-carbonyl)piperidin-4-yl)-1H-pyrazol-4-yl)ethyl)-2-oxobenzo[cd]indol-1(2H)-yl)piperidine-2,6-dione]	< 1 nM
O=C1CCC(N2C(=O)c3cccc4c(Cc5ccc(CN6CCN(S(=O)(=O)CC(F)(F)F)CC6)cc5)ccc2c34)C(=O)N1 (single isomer, unassigned) [Compound 159, 3-(2-Oxo-6-{4-[4-(2,2,2-trifluoro-ethanesulfonyl)-piperazin-1-ylmethyl]-benzyl}-2H-benzo[cd]indol-1-yl)-piperidine-2,6-dione]	< 1 nM
O=C1CCC(N2C(=O)c3cccc4c(Cc5cnn(C6CCN(C7CCCC78CCC8)CC6)c5)ccc2c34)C(=O)N1 (single isomer, unassigned) [Compound 178, 3-[2-oxo-6-[[1-[1-[spiro[3.4]octan-8-yl]-4-piperidyl]pyrazol-4-yl]methyl]benzo[cd]indol-1-yl]piperidine-2,6-dione]	< 1 nM
N#Cc1ccc(N2CCN(Cc3ccc(Cc4ccc5c6c(cccc46)C(=O)N5C4CCC(=O)NC4=O)cc3)CC2)c(F)c1 (single isomer, unassigned) [Compound 184, 4-(4-(4-((1-(2,6-dioxopiperidin-3-yl)-2-oxo-1,2-dihydrobenzo[cd]indol-6-yl)methyl)benzyl)piperazin-1-yl)-3-fluorobenzonitrile]	< 1 nM
CC1(CN2CCC(n3cc(Cc4ccc5c6c(cccc46)C(=O)N5C4CCC(=O)NC4=O)cn3)C(F)(F)C2)CCC1 (single isomer, unassigned) [Compound 186, 3-[6-[[1-[3,3-difluoro-1-[(1-methylcyclobutyl)methyl]-4-piperidyl]pyrazol-4-yl]methyl]-2-oxo-benzo[cd]indol-1-yl]piperidine-2,6-dione]	< 1 nM
O=C1CC[C@H](N2C(=O)c3cccc4c(Cc5ccc(CN6CCC7(CCCO7)CC6)cc5)ccc2c34)C(=O)N1 (single isomer, unassigned) [Compound 216, 3-[6-[[4-(1-oxa-8-azaspiro[4.5]decan-8-ylmethyl)phenyl]methyl]-2-oxo-benzo[cd]indol-1-yl]piperidine-2,6-dione]	< 1 nM
O=C1CCC(N2C(=O)c3cccc4c(Cc5ccc(CN6CCC7(CCCO7)CC6)cc5)ccc2c34)C(=O)N1 (single isomer, unassigned) [Compound 217, 3-[6-[[4-(1-oxa-8-azaspiro[4.5]decan-8-ylmethyl)phenyl]methyl]-2-oxo-benzo[cd]indol-1-yl]piperidine-2,6-dione]	< 1 nM
O=C1CC[C@H](N2C(=O)c3cccc4c(Cc5ccc(CN6CCOCC6)cc5)ccc2c34)C(=O)N1 (single isomer, unassigned) [Compound 219, 3-(6-(4-(morpholinomethyl)benzyl)-2-oxobenzo[cd]indol-1(2H)-yl)piperidine-2,6-dione]	< 1 nM
O=C1CCC(N2C(=O)c3cccc4c(Cc5ccc(CN6CCOCC6)cc5)ccc2c34)C(=O)N1 (single isomer, unassigned) [Compound 220, 3-(6-(4-(morpholinomethyl)benzyl)-2-oxobenzo[cd]indol-1(2H)-yl)piperidine-2,6-dione]	< 1 nM

Same assay, conditions: NCIH929.1 cell viability, 96 hr, top concentration 1 μM, 14 points half log titration; read-out: IC50

SMILES	IC50
CC1(C(=O)N2CCC(n3cc(Cc4ccc5c6c(cccc46)C(=O)N5C4CCC(=O)NC4=O)cn3)CC2)CCC1 (single isomer, unassigned) [Compound 68, 3-[6-[[1-[1-(1-methylcyclobutanecarbonyl)-4-piperidyl]pyrazol-4-yl]methyl]-2-oxo-benzo[cd]indol-1-yl]piperidine-2,6-dione]	< 1 nM
N#Cc1ccc(N2CCN(Cc3cnn(Cc4ccc5c6c(cccc46)C(=O)N5C4CCC(=O)NC4=O)c3)CC2)c(F)c1 (single isomer, unassigned) [Compound 130, 4-[4-[[1-[[1-[2,6-dioxo-3-piperidyl]-2-oxo-benzo[cd]indol-6-yl]methyl]pyrazol-4-yl]methyl]piperazin-1-yl]-3-fluoro-benzonitrile]	< 1 nM
CC(C)(C)OC(=O)N1CCC(n2cc(Cc3ccc4c5c(cccc35)C(=O)N4C3CCC(=O)NC3=O)cn2)CC1 (single isomer, unassigned) [Compound 142, tert-butyl 4-[4-[[1-[2,6-dioxo-3-piperidyl]-2-oxo-benzo[cd]indol-6-yl]methyl]pyrazol-1-yl]piperidine-1-carboxylate]	< 1 nM
CC(c1cnn(C2CCN(C(=O)C3(C)CCC3)CC2)c1)c1ccc2c3c(cccc13)C(=O)N2C1CCC(=O)NC1=O (single isomer, unassigned) [Compound 149, 3-(6-(1-(1-(1-(1-methylcyclobutane-1-carbonyl)piperidin-4-yl)-1H-pyrazol-4-yl)ethyl)-2-oxobenzo[cd]indol-1(2H)-yl)piperidine-2,6-dione]	< 1 nM
O=C1CCC(N2C(=O)c3cccc4c(Cc5ccc(CN6CCN(S(=O)(=O)CC(F)(F)F)CC6)cc5)ccc2c34)C(=O)N1 (single isomer, unassigned) [Compound 160, 3-(2-Oxo-6-{4-[4-(2,2,2-trifluoro-ethanesulfonyl)-piperazin-1-ylmethyl]-benzyl}-2H-benzo[cd]indol-1-yl)-piperidine-2,6-dione]	< 1 nM
O=C1CCC(N2C(=O)c3cccc4c(Cc5cnn(C6CCN(C7CCCC78CCC8)CC6)c5)ccc2c34)C(=O)N1 (single isomer, unassigned) [Compound 179, 3-[2-oxo-6-[[1-[1-[spiro[3.4]octan-8-yl]-4-piperidyl]pyrazol-4-yl]methyl]benzo[cd]indol-1-yl]piperidine-2,6-dione]	< 1 nM
N#Cc1ccc(N2CCN(Cc3ccc(Cc4ccc5c6c(cccc46)C(=O)N5C4CCC(=O)NC4=O)cc3)CC2)c(F)c1 (single isomer, unassigned) [Compound 185, 4-(4-(4-((1-(2,6-dioxopiperidin-3-yl)-2-oxo-1,2-dihydrobenzo[cd]indol-6-yl)methyl)benzyl)piperazin-1-yl)-3-fluorobenzonitrile]	< 1 nM
CC1(CN2CCC(n3cc(Cc4ccc5c6c(cccc46)C(=O)N5C4CCC(=O)NC4=O)cn3)C(F)(F)C2)CCC1 (single isomer, unassigned) [Compound 187, 3-[6-[[1-[3,3-difluoro-1-[(1-methylcyclobutyl)methyl]-4-piperidyl]pyrazol-4-yl]methyl]-2-oxo-benzo[cd]indol-1-yl]piperidine-2,6-dione]	< 1 nM
O=C1CCC(N2C(=O)c3cccc4c(Cc5ccc(CN6CCN(c7ccccc7F)CC6)cc5)ccc2c34)C(=O)N1 (single isomer, unassigned) [Compound 189, 3-[6-[[4-[[4-(2-fluorophenyl)piperazin-1-yl]methyl]phenyl]methyl]-2-oxo-benzo[cd]indol-1-yl]piperidine-2,6-dione]	< 1 nM
O=C1CCC(N2C(=O)c3cccc4c(Cc5ccc(CN6CCN(c7ccccc7F)CC6)cc5)ccc2c34)C(=O)N1 (single isomer, unassigned) [Compound 190, 3-[6-[[4-[[4-(2-fluorophenyl)piperazin-1-yl]methyl]phenyl]methyl]-2-oxo-benzo[cd]indol-1-yl]piperidine-2,6-dione]	< 100 nM
